The results in this text go back to ChEMBL document CHEMBL1149752, “Antitumor agents, 135. Structure and stereochemistry of polacandrin, a new cytotoxic triterpene from Polanisia dodecandra” (1992).

Type in all cases: functional
Common to all, as to conditions: read-out: ED50 (the source's name)

For one assay, the system named is P388. The assay is described as follows: Cytotoxicity against mouse P388 cells.
Another assay has as its system KB. Kind of assay: Cytotoxicity against human KB cells.
A further assay deals with HCT-8. Kind of assay: Cytotoxicity against human HCT8 cells.
A further assay concerns RPMI-7951. The assay is described as follows: Cytotoxicity against human RPMI7951 cells.

In brackets after ≈: the same amount, converted by molar mass.

Turning to `CC(C)(O)[C@@H]1CC[C@@](C)([C@H]2CC[C@]3(C)[C@@H]2[C@H](O)C[C@@H]2[C@@]4(C)[C@H](O)C[C@@H](O)C(C)(C)[C@@H]4CC[C@]23C)O1` [POLACANDRIN], the EC50 was determined as 0.9 µg/mL (≈ 1.83 µM) in the assay on P388, 0.6 µg/mL (≈ 1.22 µM) in the assay with KB, 6.06 µg/mL (≈ 12.3 µM) in the assay with HCT-8 and 0.62 µg/mL (≈ 1.26 µM) with RPMI-7951.
